Results from PubChem BioAssay (NCI).
Values joined by “and” are separate entries in the source; they are usually repeats but may differ in a detail not shown here. Identical values can stand only once.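 How tested: cells in 96-well plates exposed to compound for 48 hours at five concentrations. GI50 marks 50% less growth. TGI: concentration producing complete growth inhibition.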

Assays:
Assay in all cases: NCI anticancer screen, dose series, 48 h
CAKI-1 renal = system: CAKI-1 renal
HOP-92 NSCLC = system: HOP-92 NSCLC
IGROV1 ovarian = system: IGROV1 ovarian
MALME-3M melanoma = system: MALME-3M melanoma
MCF7 breast = system: MCF7 breast
MDA-MB-435 = system: MDA-MB-435
NCI-H226 lung = system: NCI-H226 lung
SF-295 CNS = system: SF-295 CNS
SK-MEL-2 melanoma = system: SK-MEL-2 melanoma
SNB-19 CNS = system: SNB-19 CNS

SMILES | GI50 (CAKI-1 renal) | TGI (CAKI-1 renal) | GI50 (HOP-92 NSCLC) | TGI (HOP-92 NSCLC) | GI50 (IGROV1 ovarian) | TGI (IGROV1 ovarian) | GI50 (MALME-3M melanoma) | TGI (MALME-3M melanoma) | GI50 (MCF7 breast) | TGI (MCF7 breast) | GI50 (MDA-MB-435) | TGI (MDA-MB-435) | GI50 (NCI-H226 lung) | TGI (NCI-H226 lung) | GI50 (SF-295 CNS) | TGI (SF-295 CNS) | GI50 (SK-MEL-2 melanoma) | TGI (SK-MEL-2 melanoma) | GI50 (SNB-19 CNS) | TGI (SNB-19 CNS)
O=C(c1ccco1)c1c(C(F)(F)F)n([O-])c2ccccc2[n+]1=O | 1.13 µM | 3.94 µM | 0.144 µM | 0.986 µM | 0.549 µM | 1.21 µM | 1.68 µM | 8.02 µM | 0.458 µM | 7.36 µM | 1.85 µM | 17.5 µM | 0.665 µM | 4.31 µM | 1.32 µM | 7.69 µM | 1.48 µM | 6.19 µM | 3.34 µM | 22.3 µM
COc1cc2c[n+](C)c3c4ccccc4ccc3c2cc1OC (tested in a mixture with another compound) |  | > 83 µM | 5.25 µM | 28.6 µM | 2.75 µM | 44.1 µM | 1.28 µM | 3.25 µM and 14 µM | 19.8 µM |  | 8.92 µM | 21.5 µM |  | 33 µM |  | 71.5 µM | 4.25 µM | 21.8 µM | 0.964 µM | 25.1 µM
O=C(O)c1ccc(N/C=C2\C(=O)c3ccccc3OC2O)cc1O (stereo not drawn) | 10.8 µg/mL | 32.5 µg/mL | 4.11 µg/mL | 36.5 µg/mL | 12.8 µg/mL | 47.3 µg/mL | 10 µg/mL | 38.9 µg/mL | 12.6 µg/mL | 81.8 µg/mL | 20.2 µg/mL | 68.4 µg/mL | 46.5 µg/mL | > 150 µg/mL | 5.96 µg/mL | 28.7 µg/mL | 23.5 µg/mL | 51.1 µg/mL | 18.4 µg/mL | 72.4 µg/mL
CC(=O)O/N=C1/C(c2c(O)[nH]c3cc(Br)ccc23)=Nc2ccccc21 | 0.275 µM | 2.04 µM | 1.93 µM | 5.35 µM | 1.27 µM | 3.33 µM | 3.48 µM | 8.42 µM | 1.93 µM | 5.98 µM | 1.63 µM | 3.2 µM | 1.45 µM | 4.74 µM | 2 µM | 5.47 µM | 1.28 µM | 2.89 µM | 4.26 µM | 11.1 µM
CCOC(=O)/C=C/C(C(=O)/C=C/c1ccc(O)c(OC)c1)=C(O)\C=C\c1ccc(O)c(OC)c1 | 4.5 µM | 17.5 µM | 10.5 µM | 30.1 µM | 11 µM | 93.8 µM | 9.93 µM | > 100 µM | 7.52 µM | 67.5 µM | 3.29 µM | 9.31 µM | 1.67 µM | 5.1 µM | 14.6 µM | 47 µM | 5.17 µM | 26.2 µM | 5.14 µM | 27.2 µM
NS(=O)(=O)c1cccc(N=Cc2c(O)[nH]c3ccccc23)c1 | 13.9 µM | > 25 µM | > 25 µM | > 25 µM | > 20.2 µM | > 25 µM | > 25 µM | > 25 µM | > 25 µM | > 25 µM | > 25 µM | > 25 µM | > 25 µM | > 25 µM | > 25 µM | > 25 µM | > 25 µM | > 25 µM | > 25 µM | > 25 µM
Cc1cc(Cc2cc(C)cc(C(C)(C)C)c2O)c(O)c(C(C)(C)C)c1 | 2.36 µM | 8.03 µM | 4.37 µM | 16 µM | 5.24 µM | 16.5 µM | 5.3 µM | 20 µM | 3.47 µM | 12.7 µM | 7.82 µM | 22.2 µM | 14.2 µM | 30 µM | 2.54 µM | 6.23 µM | 15.1 µM | 33.6 µM | 13.1 µM | 25.8 µM
COc1cccc(/C=C/c2cnc3ccccc3n2)c1OC |  | > 100 µM |  | 88.2 µM |  | > 100 µM |  | > 100 µM |  | > 100 µM |  | > 100 µM |  | > 100 µM |  | > 100 µM |  | 98.5 µM |  | 
N#CCc1ncc(-c2ccc(C(F)(F)F)cc2)c(NC2CCCCCC2)n1 | > 10 µM | > 10 µM | > 10 µM | > 10 µM | > 10 µM | > 10 µM | > 10 µM | > 10 µM | > 10 µM | > 10 µM | > 10 µM | > 10 µM | > 10 µM | > 10 µM | > 10 µM | > 10 µM | > 10 µM | > 10 µM | > 10 µM | > 10 µM
Cc1cc(=O)oc2cc(OCc3c(F)cccc3Cl)ccc12 |  | > 100 µM |  | 33.2 µM |  | > 100 µM |  | > 100 µM |  | > 100 µM |  | 3.5 µM |  | > 100 µM |  | 52.9 µM |  | > 100 µM |  | > 100 µM
C=CCC1(O)c2cccc(NCCO)c2C(=O)c2c(NCCO)cccc21 | > 100 µM | > 100 µM | 80.7 µM | > 100 µM | > 100 µM | > 100 µM | > 100 µM | > 100 µM | > 100 µM | > 100 µM | > 100 µM | > 100 µM | > 100 µM | > 100 µM | > 100 µM | > 100 µM | > 100 µM | > 100 µM | > 100 µM | > 100 µM
COc1ccc(-c2ccc(-c3ccc(-c4ccc(C(=N)N)cc4)s3)s2)cc1OC | 15.1 µM | 30.4 µM | 2.18 µM | 6.1 µM | 0.937 µM | 3.78 µM | 13 µM | 49.6 µM | 0.39 µM | 2.1 µM | 5.32 µM | 20.2 µM | 18.5 µM | 58.4 µM | 21.2 µM | 45.5 µM | 19.7 µM | 43.5 µM | 3.01 µM | 16.6 µM
COc1ccc(/C=C/C(=O)Oc2cc(O)cc(O)c2)cc1 |  | 31 µM |  | > 100 µM |  | 76.1 µM |  | > 100 µM |  | 71.7 µM |  | > 100 µM |  | > 100 µM |  | 52.4 µM |  | > 100 µM |  | > 100 µM
Cc1ccc2c(O)c(O)cc(NC(C)CCCN)c2n1 (stereo not drawn) | 21.8 µM | > 54.7 µM | 57.5 µM | > 100 µM | 14.2 µM | 47.7 µM | 18.7 µM | 41.6 µM | 2.65 µM | 9.82 µM | 19.4 µM | 38.3 µM | 44.9 µM | > 100 µM | > 48 µM | > 74.2 µM | > 45.9 µM | > 91.9 µM |  | 
